Laboratory results published in patent publication US11795151B2, “Benzotriazole compound” (MIYOSHI OIL & FAT CO., LTD., priority 2017, dated 2023).

Legend:
Type in all cases: physicochemical
[1] = Evaluation of UV absorption performance (1): absorbance spectra in chloroform; conditions: 100 μM; for Absorbance at absorption peak in wavelength region of 350 to 390 nm / Absorbance at peak end / Absorption wavelength at peak end / Molar extinction coefficient at peak (maximum molar extinction coefficient: εmax) / Wave length at absorption peak in wavelength region of 350 to 390 nm (maximum absorption wavelength: λmax): 10-mm quartz cell; for Absolute value of slope of absorption peak on long wavelength side in wavelength region of 350 to 390 nm: Equation 2
Experimental: Compounds 1 to 12 were diluted with 100 μM of chloroform, placed in a 10-mm quartz cell, and the absorbance spectra were measured using an ultraviolet-visible spectrophotometer (V-550, manufactured by JASCO Corporation)(FIGS. 1 to 12).
The absorption peak (maximum absorption wavelength: λmax) and absorbance in the wavelength range of 350 to 390 nm were read from the absorption spectra of Compounds 1 to 12, and the molar extinction coefficient of the peak (maximum molar extinction coefficient: εmax) was obtained by the following equation (able 1). Molar extinction coefficient:εmax(L/(mol·cm))=A:Absorbance/[c:Mol concentration(mol/L)×1:Cell optical length(cm)] [Equation 1]
In addition, from the absorption spectra of Compounds 1 to 12, assuming that an intersection of a long-wavelength side absorption spectrum in the absorption peak at 350 to 390 nm and a baseline (a line where the slope of the absorption spectrum at 380 to 500 nm is zero) is set as a […] (for example: FIG. 1), the absolute value of the slope of the absorption peak on the long-wavelength side in the wavelength region at 350 to 390 nm was obtained by the following equation: |Slope of absorption peak on long wavelength side in wavelength region of 350 to 390 nm|=|(Absorbance at peak end−Absorbance at absorption peak in wavelength region of 350 to 390 nm)/(Absorption wavelength at peak end−Wave length at absorption peak in wavelength region of 350 to 390 nm)| [Equation 2]

[2] = Maximum solubility in various monomers; conditions: acrylonitrile as a vinyl-based monomer; same evaluation method
From the text: With the same evaluation method, 2 wt % of Compound 1, 5 wt % of Compound 2, 5 wt % of Compound 3, and 1 wt % of Compound 4 were each soluble in acrylonitrile as a vinyl-based monomer as well.

[3] = Maximum solubility in various monomers; conditions: room temperature (20 to 30° C.), 4 hours
[4] = Evaluation of 5% weight reduction temperature (1) (TG/DTA); conditions: temperature increasing rate 10° C./min, 25° C. to 550° C.
Experimental: Compounds 1 to 8 and 10 to 12 were measured using a differential thermogravimetric simultaneous measurement device (TG/DTA6200, manufactured by SII Corporation) at a temperature increasing rate of 10° C./min and within a measurement range of 25° C. to 550° C., and the temperature at which 5 wt % reduction as the weight change (TG) took place was read (Table 6).

[5] = Evaluation of UV absorption performance (2): absorbance spectra in chloroform; conditions: 100 μM
Experimental: Compounds 11 to 28 were diluted with 100 μM of chloroform and placed in a 10-mm quartz cell, and the absorbance spectra were measured using an ultraviolet-visible spectrophotometer (V-550, manufactured by JASCO Corporation)(FIGS. 11,12,14 to 29).
The absorption peak (maximum absorption wavelength: max) and absorbance in the wavelength range of 350 to 390 nm were read from the absorption spectra of Compounds 11 to 28, and a molar extinction coefficient (maximum molar extinction coefficient: εmax) of the peak was obtained by the following formula (Table 7): Molar extinction coefficient:εmax(L/(mol·cm))=A:Absorbance/[c:Mol concentration(mol/L)×1:Cell optical length(cm)] [Equation 3]
In addition, from the absorption spectra of Compounds 11 to 28, assuming that an intersection of a long-wavelength side absorption spectrum in the absorption peak at 350 to 390 nm and a baseline (a line where the slope of the absorption spectrum at […] is zero) is set as a peak end (for example: FIG. 1), the absolute value of the slope of the absorption peak on the long-wavelength side in the wavelength region at 350 to 390 nm was obtained by the following equation (Table 8): |Slope of absorption peak on long wavelength side in wavelength region of 350 to 390n|=|(Absorbance at peak end−Absorbance at absorption peak in wavelength region of 350 to 390 nm)/(Absorption wavelength at peak end−Wave length at absorption peak in wavelength region of 350 to 390 nm)| [Equation 4]

| Compound | Absorbance at absorption peak in wavelength region of 350 to 390 nm [1] | Absorbance at peak end [1] | Absorption wavelength at peak end [1] [nm] | Molar extinction coefficient at peak (maximum molar extinction coefficient: εmax) [1] [L/mol/cm] | Wave length at absorption peak in wavelength region of 350 to 390 nm (maximum absorption wavelength: λmax) [1] [nm] | Concentration soluble in acrylonitrile [2] [wt %] | Maximum solubility ([3]; Dimethylacrylamide) [wt %] | Maximum solubility ([3]; Hexadiene) [wt %] | Maximum solubility ([3]; Methyl (meth)acrylate) [wt %] | Maximum solubility ([3]; Styrene) [wt %] | Maximum solubility ([3]; Vinyl acetate) [wt %] | 5% weight reduction temperature [4] [°C] | Absolute value of slope of absorption peak on long wavelength side in wavelength region of 350 to 390 nm [1] | Absorbance at absoprtion peak in wavelength region of 350 to 390 nm ([5]; 10-mm quartz cell) | Absorbance at peak end ([5]; 10-mm quartz cell) | Absorption wavelength at peak end ([5]; 10-mm quartz cell) [nm] | Molar extinction coefficient at peak (maximum molar extinction coefficient: εmax) ([5]; 10-mm quartz cell) [L/mol/cm] | Wave length at absorption peak in wavelength region of 350 to 390 nm (maximum absorption wavelength: λmax) ([5]; 10-mm quartz cell) [nm] | Absolute value of slope of absorption peak on long wavelength side in wavelength region of 350 to 390 nm ([5]; Equation 4) |
| --- | --- | --- | --- | --- | --- | --- | --- | --- | --- | --- | --- | --- | --- | --- | --- | --- | --- | --- | --- |
| C=CC(=O)OCCCCCCSc1ccc2nn(-c3cc(C)cc(C(C)(C)C)c3O)nc2c1 [Compound 1] | 2.26 | 0.00766 | 422 | 22600 | 368 | 2 | 20 | 10 | 20 | 25 | 15 |  |  |  |  |  |  |  |  |
| C=C(C)C(=O)OCCSc1ccc2nn(-c3cc(C)cc(C(C)(C)C)c3O)nc2c1 [Compound 2] | 2.25 | 0.00727 | 421 | 21400 | 365 | 5 | 15 | 3 | 20 | 25 | 15 | 285 |  |  |  |  |  |  |  |
| C=C(C)C(=O)OCCCSc1ccc2nn(-c3cc(C)cc(C(C)(C)C)c3O)nc2c1 [Compound 3] | 2.18 | 0.00692 | 419 | 21600 | 367 | 5 | 11 | 5 | 20 | 25 | 12 | 292 |  |  |  |  |  |  |  |
| C=C(C)C(=O)OCCCCCCSc1ccc2nn(-c3cc(C)cc(C(C)(C)C)c3O)nc2c1 [Compound 4] | 2.24 | 0.00762 | 420 | 22400 | 368 | 1 |  |  | 12 | 25 |  |  |  |  |  |  |  |  |  |
| C=C(C)C(=O)Oc1ccc(Sc2ccc3nn(-c4cc(C)cc(C(C)(C)C)c4O)nc3c2)cc1 [Compound 5] | 2.29 | 0.01022 | 422 | 21800 | 367 |  | 15 | 5 | 15 | 25 | 13 |  |  |  |  |  |  |  |  |
| C=C(C)C(=O)OCCCCCCOc1ccc(Sc2ccc3nn(-c4cc(C)cc(C(C)(C)C)c4O)nc3c2)cc1 [Compound 6] | 2.27 | 0.01184 | 424 | 21600 | 369 |  | 15 | 10 | 20 | 25 | 15 |  |  |  |  |  |  |  |  |
| C/C=C/C(=O)OCCCCCCSc1ccc2nn(-c3cc(C)cc(C(C)(C)C)c3O)nc2c1 [Compound 7] | 2.19 | 0.00728 | 422 | 21900 | 368 |  |  |  |  |  |  | 304 |  |  |  |  |  |  |  |
| C=CCSc1ccc2nn(-c3cc(C)cc(C(C)(C)C)c3O)nc2c1 [Compound 10, reference compound] | 1.76 | 0.00722 | 430 | 17600 | 375 |  | ≤9 | 1 | ≤10 | ≤20 | ≤10 | 252 | 0.032 |  |  |  |  |  |  |
| C=C(C)C(=O)OCCc1ccc(O)c(-n2nc3ccccc3n2)c1 [Compound 11, reference compound] | 1.83 | 0.0069 | 388 | 18300 | 341 |  | 10 | 2 | 11 | 21 | 11 | 249 | 0.038 | 1.83 | 0.0069 | 388 | 18300 | 341 | 0.038 |
